Source: patent US5462927A, “Peptides aiding nerve regeneration” (The Administrators of the Tulane Educational Fund, priority 1992, dated 1995)
Ends that are not written are not given here.

System: crushed sciatic nerve
Experiment: Sensorimotor function test (sciatic nerve regeneration assay, foot-flick response to thermal pain)
Assay type: in vivo, rat
Conditions: s.c. every 24 hr for approximately 20-25 days; head prints only 'μG/24 HRS'; vs 0.9% NaCl control
Experimental: Female, Sprague-Dawley rats (Charles River Breeding Labs) were used at an age of 7-8 weeks (120-140 g). Under ether anesthesia, the right sciatic nerve was carefully exposed and crushed with constant pressure, hemostatic forceps for 30 sec prior to closure and suturing of the incision. After surgery, the animals were randomly assigned to treatment groups of 10. The test peptides were administered s.c. in 0.9% NaCl in a vol of 0.1 ml. NaCl (0.9%) served as the control. Injections were started immediately after surgery and given every 24 hr thereafter for approximately 20-25 days. The criterion of sciatic nerve regeneration was based on the recovery of the foot-flick response to thermal pain. Beginning 48 hr after surgery, the rats were tested five days a week for the ability to withdraw, from a heat source, the paw innervated by the crushed nerve. All sensorimotor testing was performed between 1:00 and 3:00 p.m. Specifically, the rat was immobilized by wrapping in a towel, and the sole of the lesioned limb was placed over the aperture of a modified d'Amour apparatus. The time required to withdraw the foot was recorded to the nearest 0.1 of sec using a digital stopwatch. If no response occurred by 5 sec, the test was terminated to avoid tissue damage. The observe measuring the foot-flick response was blind to the treatment group being tested. All animals were acclimatized to the testing procedure prior to surgery. Baseline values were obtained by determining the response time for the unlesioned limb.

Question: For `CCCC[C@H](N)C(=O)N[C@@H](CCC(N)=O)C(=O)N[C@@H](Cc1c[nH]cn1)C(=O)N[C@@H](Cc1ccccc1)C(=O)N[C@@H](CCCNC(=N)N)C(=O)N[C@@H](Cc1c[nH]c2ccccc12)C(=O)NCC(N)=O` [BIM-22010, NLeu--Gln--His--Phe--Arg--Trp--Gly--NH2], which “% Reduction of Recovery Time” value is on record?
Answer: Its value is 13%.

Question: How did the “% Reduction of Recovery Time” value turn out when “AQYFRWG-NH2 [BIM-22016, L--Ala--Gln--Tyr--Phe--Arg--Trp--Gly--NH2]” was run?
Answer: The value was 13%.
